These results are taken from ChEMBL document CHEMBL4385603 (J Med Chem, 2019).

Each structure is given as a SMILES string.

Assay [1] has as its target T1, Induced myeloid leukemia cell differentiation protein Mcl-1 (Homo sapiens, UniProt Q07820).
Description: Inhibition of FITC-labeled Bim peptide binding to His6-tagged MBP-fused Mcl-1 (unknown origin) in presence of 1% fetal bovine serum by fluorescence polarization assay
For assay [2], the target named is T1, Induced myeloid leukemia cell differentiation protein Mcl-1. This is another data set of the same source.
Description: Inhibition of FITC-labeled Bim peptide binding to His6-tagged MBP-fused Mcl-1 (unknown origin) by fluorescence polarization assay
The subject of assay [3] is NCI-H929. Nature of the assay: cells. The note with it: Homo sapiens, NCI-H929, 72 h.
Description: Antiproliferative activity against Mcl1-sensitive human NCI-H929 cells assessed as cell growth inhibition after 72 hrs by Celltiter-glo luminescence assay
Assay [4] has as its target Bcl-2-like protein 1 (Homo sapiens, UniProt Q07817).
Description: Inhibition of FITC-labeled Bak peptide binding to Bcl-xL (unknown origin) after 0.5 hrs by fluorescence polarization assay
Assay [5] deals with T1, Induced myeloid leukemia cell differentiation protein Mcl-1. The source holds these as a separate data set.
Description: Inhibition of FITC-labeled Bak peptide binding to MBP-fused Mcl-1 (unknown origin) measured after 3 hrs in presence of 1% fetal bovine serum by TR-FRET assay
In assay [6] the test system is K562. As to the kind of experiment: cells. The following applies: Homo sapiens, K562, 72 h.
Description: Antiproliferative activity against Mcl1-insensitive human K562 cells assessed as cell growth inhibition after 72 hrs by Celltiter-glo luminescence assay
Assay [7] addresses Apoptosis regulator Bcl-2 (Homo sapiens, UniProt P10415).
Description: Inhibition of FITC-labeled Bak peptide binding to Bcl-2 (unknown origin) after 0.5 hrs by fluorescence polarization assay
Assay [8] concerns the target T1, Induced myeloid leukemia cell differentiation protein Mcl-1. The source holds these as a separate data set.
Description: Inhibition of FITC-labeled Bak peptide binding to MBP-fused Mcl-1 (unknown origin) measured after 3 hrs by TR-FRET assay

Chain of Bcl-2-like protein 1 (Q07817 whole entry): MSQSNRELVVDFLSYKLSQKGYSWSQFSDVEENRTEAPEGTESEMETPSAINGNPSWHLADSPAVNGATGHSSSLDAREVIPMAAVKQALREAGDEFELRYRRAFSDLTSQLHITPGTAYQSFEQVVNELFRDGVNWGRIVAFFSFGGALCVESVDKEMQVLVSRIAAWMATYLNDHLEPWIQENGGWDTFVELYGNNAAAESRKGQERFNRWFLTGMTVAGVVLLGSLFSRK
T1 sequence (Q07820 whole entry): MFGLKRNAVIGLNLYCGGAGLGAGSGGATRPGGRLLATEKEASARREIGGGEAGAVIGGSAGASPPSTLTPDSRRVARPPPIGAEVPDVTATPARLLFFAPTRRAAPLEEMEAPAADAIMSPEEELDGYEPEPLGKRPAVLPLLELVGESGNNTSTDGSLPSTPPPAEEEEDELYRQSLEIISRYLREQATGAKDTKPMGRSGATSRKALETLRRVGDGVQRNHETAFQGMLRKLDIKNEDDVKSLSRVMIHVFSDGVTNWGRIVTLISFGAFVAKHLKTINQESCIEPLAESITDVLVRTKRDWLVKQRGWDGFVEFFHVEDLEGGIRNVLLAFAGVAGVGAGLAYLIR
Chain of Apoptosis regulator Bcl-2 (P10415 whole entry): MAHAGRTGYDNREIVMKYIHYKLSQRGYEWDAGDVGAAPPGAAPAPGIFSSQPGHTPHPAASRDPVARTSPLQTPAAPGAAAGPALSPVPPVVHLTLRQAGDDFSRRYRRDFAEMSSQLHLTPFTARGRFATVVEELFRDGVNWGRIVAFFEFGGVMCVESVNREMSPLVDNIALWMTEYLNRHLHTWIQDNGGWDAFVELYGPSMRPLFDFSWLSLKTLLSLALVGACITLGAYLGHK

The term Ki denotes the equilibrium dissociation constant of an inhibitor or competing ligand from its target. Turning to `Cc1cc(OCCCc2c3n(c4c(-c5c(C)nn(C)c5C)c(Cl)ccc24)C[C@@H](C)N(Cc2ccc(C(=O)O)o2)C3=O)cc(C)c1Cl`, the Ki in assay [1] is 39 nM; in assay [2] it was 5.9 nM.
The corresponding values for `Cc1cc(OCCCc2c3n(c4c(-c5c(C)nn(C)c5C)c(Cl)ccc24)C[C@H](C)N(Cc2ccc(C(=O)O)o2)C3=O)cc(C)c1Cl` are 150 nM and 8.7 nM.
In the case of `Cc1cc(OCCCc2c3n(c4c(-c5c(C)nn(C)c5C)c(Cl)ccc24)C[C@@H](C)N(Cc2ccc(C(=O)O)cc2)C3=O)cc(C)c1Cl`, the values for the Ki in assay [1] and in assay [2] were 53 nM and 1.8 nM, respectively.
On to `Cc1cc(OCCCc2c3n(c4c(-c5c(C)nn(C)c5C)c(Cl)ccc24)CCCNC3=O)cc(C)c1Cl`, for which the Ki in assay [1] was found to be 101 nM; in assay [2] it was 12 nM.
For the compound `Cc1cc(OCCCc2c3n(c4c(-c5c(C)nn(C)c5C)c(Cl)ccc24)[C@H](C)CN(Cc2ccc(C(=O)O)o2)C3=O)cc(C)c1Cl`, the inhibition constant (Ki) in assay [1] was 26 nM; in assay [2], 1 nM.
The corresponding values for `Cc1cc(OCCCc2c3n(c4c(-c5c(C)nn(C)c5C)c(Cl)ccc24)CCN(Cc2cccc(C(=O)O)c2)C3=O)cc(C)c1Cl` are 52 nM and 9.6 nM.
For `Cc1cc(OCCCc2c3n(c4c(-c5c(C)nn(C)c5C)c(Cl)ccc24)[C@H](C)CN(Cc2cccc(C(=O)O)c2)C3=O)cc(C)c1Cl`, the figures for the inhibitory constant (Ki) in assay [1] and in assay [2] were 26 nM and 1.1 nM, respectively.
As for `Cc1cc(OCCCc2c3n(c4c(-c5c(C)nn(C)c5C)c(Cl)ccc24)C[C@@H](C)N(Cc2cccc(C(=O)O)c2)C3=O)cc(C)c1Cl`, the inhibition constant (Ki) in assay [1] stood at 67 nM; in assay [2], 2.1 nM.
The like results for `Cc1cc(OCCCc2c3n(c4c(-c5c(C)nn(C)c5C)c(Cl)ccc24)CC(C)CN(Cc2cccc(C(=O)O)c2)C3=O)cc(C)c1Cl` (configuration not stated) were, in that order, 144 nM and 11 nM.
The corresponding values for `Cc1cc(OCCCc2c3n(c4c(-c5c(C)nn(C)c5C)c(Cl)ccc24)CCNC3=O)cc(C)c1Cl` are over 200 nM and 35 nM.
With `Cc1cc(OCCCc2c3n(c4c(-c5c(C)nn(C)c5C)c(Cl)ccc24)C[C@@H](C)NC3=O)cc(C)c1Cl`, the inhibition constant Ki came to 151 nM in assay [1] and 27 nM in assay [2].
As to `Cc1cc(OCCCc2c3n(c4c(-c5c(C)nn(C)c5C)c(Cl)ccc24)CC(C)CN(Cc2ccc(C(=O)O)o2)C3=O)cc(C)c1Cl` (configuration not stated), the Ki came to 81 nM in assay [1] and 7.6 nM in assay [2].
The corresponding values for `Cc1cc(OCCCc2c3n(c4c(-c5c(C)nn(C)c5C)c(Cl)ccc24)[C@@H](C)CN(Cc2ccc(C(=O)O)cc2)C3=O)cc(C)c1Cl` are 191 nM and 35 nM.
The corresponding values for `Cc1cc(OCCCc2c3n(c4c(-c5c(C)nn(C)c5C)c(Cl)ccc24)CCC(C)N(Cc2ccc(C(=O)O)cc2)C3=O)cc(C)c1Cl` (configuration not stated) are 42 nM and 6.6 nM.
The corresponding values for `Cc1cc(OCCCc2c3n(c4c(-c5c(C)nn(C)c5C)c(Cl)ccc24)C[C@H](C)N(Cc2ccc(C(=O)O)cc2)C3=O)cc(C)c1Cl` are 54 nM and 9.6 nM.
The GI50 is the concentration giving 50% growth inhibition. `Cc1cc(OCCCc2c3n(c4c(-c5c(C)nn(C)c5C)c(Cl)ccc24)[C@H](C)CN(c2cc(C(=O)O)c4ccn(C)c4c2)C3=O)cc(C)c1Cl`: the results for the GI50 in assay [3] and in assay [6] were 820 nM and over 12500 nM, respectively. The Ki was over 40000 nM in assay [4], 1.5 nM in assay [5], 770 nM in assay [7] and 0.21 nM in assay [8].
Turning to `Cc1cc(OCCCc2c3n(c4c(-c5c(C)nn(C)c5C)c(Cl)ccc24)CC(C)CNC3=O)cc(C)c1Cl` (configuration not stated), the Ki in assay [1] stood at 150 nM; in assay [2] it was 42 nM.
The like results for `Cc1cc(OCCCc2c3n(c4c(-c5c(C)nn(C)c5C)c(Cl)ccc24)[C@@H](C)CN(Cc2cccc(C(=O)O)c2)C3=O)cc(C)c1Cl` were, in that order, 170 nM and 37 nM.
As for `Cc1cc(OCCCc2c3n(c4c(-c5c(C)nn(C)c5C)c(Cl)ccc24)CCN(Cc2ccc(C(=O)O)cc2)C3=O)cc(C)c1Cl`, the results for the Ki in assay [1] and in assay [2] were 51 nM and 7.2 nM, respectively.
In the case of `Cc1cc(OCCCc2c3n(c4c(-c5c(C)nn(C)c5C)c(Cl)ccc24)[C@H](C)CN(c2cccc(C(=O)O)c2)C3=O)cc(C)c1Cl`, the figures for the GI50 in assay [3] and in assay [6] were 4400 nM and over 12500 nM, respectively. The inhibitory constant (Ki) in assay [4] was over 40000 nM; in assay [5], 2.6 nM; in assay [7], 990 nM; in assay [8] it was 1.4 nM.
On to `Cc1cc(OCCCc2c3n(c4c(-c5c(C)nn(C)c5C)c(Cl)ccc24)[C@H](C)CN(c2cc(C(=O)O)cc4c2OCO4)C3=O)cc(C)c1Cl`, for which the GI50 was 1700 nM in assay [3] and over 12500 nM in assay [6]. Moreover, the Ki was determined as 25000 nM in assay [4], 1.4 nM in assay [5], 630 nM in assay [7] and 0.42 nM in assay [8].
For `Cc1cc(OCCCc2c3n(c4c(-c5c(C)nn(C)c5C)c(Cl)ccc24)CC(C)CN(Cc2ccc(C(=O)O)cc2)C3=O)cc(C)c1Cl` (configuration not stated), the values for the inhibition constant Ki in assay [1] and in assay [2] were 22 nM and 7.1 nM, respectively.
On to `Cc1cc(OCCCc2c3n(c4c(-c5c(C)nn(C)c5C)c(Cl)ccc24)C[C@H](C)N(Cc2cccc(C(=O)O)c2)C3=O)cc(C)c1Cl`, for which the Ki in assay [1] was 97 nM; in assay [2], 9.9 nM.
The like results for `Cc1cc(OCCCc2c3n(c4c(-c5c(C)nn(C)c5C)c(Cl)ccc24)C(C)CCNC3=O)cc(C)c1Cl` (configuration not stated) were, in that order, over 200 nM and 43 nM.
`Cc1cc(OCCCc2c3n(c4c(-c5c(C)nn(C)c5C)c(Cl)ccc24)CCC(C)N(Cc2cccc(C(=O)O)c2)C3=O)cc(C)c1Cl` (configuration not stated): the Ki in assay [1] was over 200 nM; in assay [2], 12 nM.
As to `Cc1cc(OCCCc2c3n(c4c(-c5c(C)nn(C)c5C)c(Cl)ccc24)[C@H](C)CN(c2cccc4c(C(=O)O)cccc24)C3=O)cc(C)c1Cl`, the inhibition constant (Ki) in assay [4] is 26000 nM; in assay [5] it was 0.77 nM; in assay [7], 380 nM; in assay [8], 0.33 nM. In addition, in assay [6], the GI50 was determined as 2500 nM.
Consider `Cc1cc(OCCCc2c3n(c4c(-c5c(C)nn(C)c5C)c(Cl)ccc24)[C@H](C)CN(Cc2ccc(C(=O)O)cc2)C3=O)cc(C)c1Cl`, for which the inhibition constant (Ki) in assay [1] is 6.7 nM; in assay [2] it was 0.77 nM.
In the case of `Cc1cc(OCCCc2c3n(c4c(-c5c(C)nn(C)c5C)c(Cl)ccc24)[C@H](C)CN(c2ccc(C(=O)O)cc2)C3=O)cc(C)c1Cl`, the GI50 in assay [3] is 4000 nM; in assay [6], over 12500 nM. For the same compound, the inhibition constant (Ki) in assay [4] was over 40000 nM; in assay [5], 4.5 nM; in assay [7], 690 nM; in assay [8], 1.3 nM.
With `Cc1cc(OCCCc2c3n(c4c(-c5c(C)nn(C)c5C)c(Cl)ccc24)[C@@H](C)CN(Cc2ccc(C(=O)O)o2)C3=O)cc(C)c1Cl`, the values for the Ki in assay [1] and in assay [2] were 193 nM and 22 nM, respectively.
The corresponding values for `Cc1cc(OCCCc2c3n(c4c(-c5c(C)nn(C)c5C)c(Cl)ccc24)CCC(C)NC3=O)cc(C)c1Cl` (configuration not stated) are over 200 nM and 70 nM.
In the case of `Cc1cc(OCCCc2c3n(c4c(-c5c(C)nn(C)c5C)c(Cl)ccc24)[C@H](C)CN(c2cn(C)c4cc(C(=O)O)ccc24)C3=O)cc(C)c1Cl`, the concentration for 50% growth inhibition (GI50) in assay [3] is 290 nM; in assay [6] it was over 12500 nM. In addition, the Ki in assay [4] is over 40000 nM; in assay [5] it was 0.38 nM; in assay [7], 500 nM; in assay [8] it was 0.081 nM.
As to `Cc1cc(OCCCc2c3n(c4c(-c5c(C)nn(C)c5C)c(Cl)ccc24)CCN(Cc2ccc(C(=O)O)o2)C3=O)cc(C)c1Cl`, the figures for the inhibitory constant (Ki) in assay [1] and in assay [2] were 137 nM and 5.8 nM, respectively.
The corresponding values for `Cc1cc(OCCCc2c3n(c4c(-c5c(C)nn(C)c5C)c(Cl)ccc24)CCC(C)N(Cc2ccc(C(=O)O)o2)C3=O)cc(C)c1Cl` (configuration not stated) are 120 nM and 8.2 nM.
For `Cc1cc(OCCCc2c3n(c4c(-c5c(C)nn(C)c5C)c(Cl)ccc24)[C@H](C)CN(c2cc(C(=O)O)cc4c2ccn4C)C3=O)cc(C)c1Cl`, the GI50 in assay [3] is 2100 nM; in assay [6], over 12500 nM. Besides, the Ki in assay [4] was over 40000 nM; in assay [5] it was 6.8 nM; in assay [7], 630 nM; in assay [8], 1.3 nM.
Take `Cc1cc(OCCCc2c3n(c4c(-c5c(C)nn(C)c5C)c(Cl)ccc24)C[C@H](C)NC3=O)cc(C)c1Cl`: the Ki is 145 nM in assay [1] and 73 nM in assay [2].
